Measured values reported in US20090130064A1, “DIFFERENTIATION OF STEM CELLS AND STABILIZATION OF PHENOTYPICAL PROPERTIES OF PRIMARY CELLS” (priority 2004, published 2009).

Tests used:
[1] = tested on: rat hepatocytes; experiment: Lactate dehydrogenase index and morphology in cultured rat hepatocytes; format: cell-based; details: 50 μM
Protocol: The % LDH leakage of the cells was calculated as the result of the ratio: [100×LDH activity in supernatant]/[LDH activity in (supernatant+cells)]
Medium samples were collected at 72 hours of culture and analyzed for their albumin content by an enzyme-linked immunosorbent assay (ELISA) as described (Dunn et al. Biotechnol Prog 7: 237-245, 1991) Cell morphology was analyzed by light microscopy (×100). Pictures were taken using an Optiphot Nikon Phase Contrast microscope (Cetec, Brussels, Belgium).

[2] = tested on: primary rat hepatocytes; experiment: Biotransformation in hepatocyte culture by HPLC with ESI-MS/UV; format: in vitro ADME; details: 50 μM; after 20 hours
Protocol: Cells were cultured for 24 hours in the presence of EGF, alone or in combination with 4-Me2N-BAVAH; culture media were renewed and the expression of p21 was subsequently analyzed at short time intervals (0.5, 1, 6 and 24 hours) (FIG. 18B). In untreated EGF-stimulated hepatocytes, cyclin D1 and p21 proteins were induced 0.5 hour after medium renewal. A maximum was reached 24 hours later, namely after 48 hours of culture. As expected, no cyclin D1 and p21 proteins could be detected in 4-Me2N-BAVAH-treated cells, not even after short exposure periods (FIG. 18B). In addition, we quantified the biotransformation rate of 4-Me2N-BAVAH using high-performance liquid chromatography (HPLC) combined with simultaneous electrospray ionization mass spectrometric (ESI-MS)/UV detection. […] These findings clearly indicate that 4-Me2N-BAVAH interferes with the mitogenic effects of EGF resulting in a failure to induce cyclin D1 and p21 expression.

[3] = Biotransformation by human liver microsomes; format: in vitro ADME; details: 140 μM TSA, 150 min
Protocol: Human liver specimens (n=3) were acquired from organ donors at the Academic Hospital of the VUB in accordance with the regulations of the local Medical Ethical Committee and immediately frozen in liquid nitrogen. While human liver microsomes were prepared from frozen liver tissue, rat livers (n=3) were freshly isolated for immediate microsome preparation. Microsomal 7-ethoxyresorufin-O-deethylase (EROD) [31]was used as a marker enzyme to evaluate the microsomal biotransformation activity before and after storage. Incubations were carried out in a 100 mM sodium potassium phosphate buffer pH 7.4 in the presence of a NADPH-generating system (0.5 mM NADP^+, 10 mM glucose 6-phosphate, 2 U/ml glucose 6-phosphate dehydrogenase and 0.6 mM MgCl2). Microsomes (0.0-2.0 mg microsomal protein/ml) were incubated with 140 μM substrate at 37° C. for 150 min. Boiled microsomes ([…]) served as a control. Biotransformation reactions were initiated by addition of substrate and, at selected time intervals, terminated by dilution with ice-cold acetonitrile (1:2.5).
After centrifugation (2000 g, 45 min, 4° C.) of the diluted microsomal samples, the clear supernatant was injected onto a HPLC column. Samples from incubations with hepatocytes were thawed on ice and centrifugated (120 g, 2 min). […]

[4] = tested on: C/EBPalpha; experiment: Western blotting of C/EBPalpha in primary hepatocytes; format: cell-based, rat; details: 1 μM TSA added at 0h or 4 h; day 4 and 7
Source text: Hepatocytes were isolated from male Sprague-Dawley rats by a two-step collagenase perfusion as described (De Smet et al. In ‘Methods in Molecular Biology, Vol. 107: Cytochrome P450 Protocols’, Philips IR and Shephard E A, eds., p.p 295-301, Humana Press, Totowa, 1998). Hepatocytes were cultivated in monolayer cultures with Willam's E Medium (WE) for 7 days. […] The maintenance of differentiation characteristics was studied after 2, 4, and 7 days (D2, D4, D7) of culture.
Western blotting was performed using standard techniques known in the art. Proteins (25 μg) were resolved on a 10% SDS-PAGE and blotted onto nitrocellulose membrane. The membranes were incubated with appropriate concentrations of primary and secondary antibodies. Proteins were detected using appropriate dilutions of primary and secondary antibodies. Detection was done using the ECL detection system (Amersham Pharmacia Biotech, UK) according to manufacturer's recommendations.

[5] = tested on: hMSC; experiment: LDH-leakage cytotoxicity in hMSC; format: cell-based, human
Protocol: Low-density hMSC (CD45^−, Thy^+) were cultivated at 21.5 10^3 cells cm^2 on 1 mg/ml collagen gel type I matrix in the presence of liver-specific (LSP) cytokines, added either as a cocktail [basal medium supplemented with 10 ng/ml FGF-4 (fibroblast growth factor type 4), 20 ng/ml HGF (hepatic growth factor) (all from R&D), 1×ITS (insulin, transferrin, selenious acid) and 0.05 μM Dex (dexamethasone) (all from Sigma)] or sequentially [basal medium supplemented with 10 ng/ml FGF-4, following basal media supplemented with 20 ng/ml HGF (R&D) and finally basal medium supplemented with 20 ng/ml HGF, 1×ITS and 0.05 μM Dex]. Basal medium consisted of 60% (v/v) DMEM-LG/40% (v/v) MCDB-201 supplemented with 1 mg/ml LA-BSA, 100 IU/ml penicillin, 100 μg/ml streptomycin, 0.1 mM L-ascorbic acid, 4 μg/ml nicotinamide, 27.3 mg/l sodium-pyruvate and 1.623 mM glutamin (all from Sigma). The media were changed every three days.
The assay was done with an LDH-kit (Merck 1 14869.0001; Ecoline 1S) according to the manufacturer's recommendations.

| Structure (SMILES) | cytotoxicity (LDH leakage, morphology) [1] | metabolites detected in culture [2] | biotransformation in microsome suspensions [3] | expression of C/EBPalpha [4] | cytotoxicity (LDH leakage) ([5]; 1 μM TSA) | cell lethality (LDH leakage) ([5]; 1 μM TSA, from day 13 (cocktail) and day 3 (sequential) on) | cytotoxicity (LDH leakage) ([5]; 5 and 25 μM TSA from day 0 until addition of HGF) |
| --- | --- | --- | --- | --- | --- | --- | --- |
| CN(C)c1ccc(C(=O)NCCCCC(=O)NO)cc1 [4-Me2N-BAVAH, 5-(4-dimethylaminobenzoyl)-aminovaleric acid hydroxamide] | not due to cytotoxicity | No metabolites of the compound could be detected |  |  |  |  |  |
| CC(C=CC(=O)NO)=CC(C)C(=O)c1ccc(N(C)C)cc1 (stereo not shown) [TSA] |  |  | slow and incomplete biotransformation | increase expression | did not cause immediate cell death | significantly downregulated cell lethality | immediate cell death |
